Reference: patent publication US9902725B2, “Heterocyclic derivatives as RORgamma modulators” (GENFIT, priority 2014, dated 2018)

Columns and labels:
[1] = biological target: T1, RORγt ligand-binding domain (RORγt-LBD) (Homo sapiens, UniProt P51449); experiment: Time-resolved FRET (TR-FRET) RORγt coactivator assay; format: biochemical; settings: GST-RORγ-LBD, biotinylated RIP140 peptide, coactivator displacement
T1 construct: 20 nM recombinantly expressed RORγ-LBD fused to GST
T1 sequence (P51449 269-508 limits assumed): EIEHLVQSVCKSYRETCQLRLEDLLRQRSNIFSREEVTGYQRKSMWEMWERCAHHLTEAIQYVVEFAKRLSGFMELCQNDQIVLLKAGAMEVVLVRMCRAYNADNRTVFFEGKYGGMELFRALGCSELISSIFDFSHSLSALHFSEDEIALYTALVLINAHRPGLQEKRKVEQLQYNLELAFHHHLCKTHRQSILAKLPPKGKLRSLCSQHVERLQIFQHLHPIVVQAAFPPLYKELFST

human RORγt = biological target: T2, human RORγt (Homo sapiens, UniProt P51449); experiment: IL-17 secretion from EL4 murine lymphoma overexpressing human RORγt; format: cell-based; set-up: expressed in transfected cells; host or cells: EL-4 murine lymphoma; settings: IL-17 secretion inhibition, PMA and ionomycin stimulation, 24 h
T2 sequence (P51449 1-497 isoform P51449-2): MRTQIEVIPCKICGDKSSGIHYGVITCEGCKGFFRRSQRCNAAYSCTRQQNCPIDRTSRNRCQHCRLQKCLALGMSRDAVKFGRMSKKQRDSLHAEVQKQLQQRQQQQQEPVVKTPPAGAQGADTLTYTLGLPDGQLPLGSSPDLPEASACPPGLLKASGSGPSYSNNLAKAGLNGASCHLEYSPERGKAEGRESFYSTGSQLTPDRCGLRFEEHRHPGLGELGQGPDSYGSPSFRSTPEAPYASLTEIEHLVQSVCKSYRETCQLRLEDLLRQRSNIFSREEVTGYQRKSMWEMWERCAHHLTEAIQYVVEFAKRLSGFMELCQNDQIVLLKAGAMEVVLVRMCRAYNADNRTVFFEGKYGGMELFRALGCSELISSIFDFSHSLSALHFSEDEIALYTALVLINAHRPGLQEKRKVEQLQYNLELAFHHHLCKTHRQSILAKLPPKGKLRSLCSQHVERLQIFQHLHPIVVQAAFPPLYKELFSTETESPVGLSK
Protocol: Murine EL-4 lymphoma cell line overexpressing human RORγt was used in this functional assay to assess compound ability to inhibit IL-17 cytokine secretion.
EL-4 cells are maintained in a standard culture medium RPMI supplemented with 10% fetal calf serum, 1% sodium pyruvate, 1% essential amino acids and 1% antibiotics at 37° C. in a humidified atmosphere of 5% CO2 and 95% air. Culture medium was changed every 2 days. EL4 cells were transfected with a plasmid encoding hRORγt (sequence identical to published sequence NM 001001523). […] Briefly, 1 μg of DNA/1 million cells was served to transfect EL-4 cells. Cell/DNA suspension was transferred into certified cuvette and the electroporation of RORγt plasmid was carried out using appropriate Nucleofector® program.
Cells were seeded in 96 well plates at a density of 150000 cells/well then treated with compounds of this invention at indicated concentrations and incubated for 24 hours at 37° C. in a humidified atmosphere of 5% CO2 and 95% air. EL-4 cells were pretreated with test compounds (RORγ modulators) and stimulated with PMA (10 ng/mL) and ionomycin (1 μM final concentration) in the presence of test compound concentrations for additional 24 h at 37° C. in a humidified atmosphere of 5% CO2 and 95% air. Subsequently, supernatants were collected (after centrifugation at 300 g for 10 minutes) to determine the concentrations of IL-17 by HTRF (CisBio, France) or ELISA (R&D Systems Europe) according to the manufacturer's protocols.

Row | IC50 [1] | IC50 (human RORγt) | Structure (SMILES)
1 | 1000 to 10000 nM | 1000 to 10000 nM | CC(C)(C)OC(=O)CCc1c[nH]c2ccc(CC(=O)NC(c3ccccc3)c3ccc(Br)cc3N3CCCC3)cc12 (centres unmarked) [Cpd. 49, tert-butyl 3-{5-[({[4-bromo-2-(pyrrolidin-1-yl)phenyl](phenyl)methyl}carbamoyl)methyl]-1H-indol-3-yl}propanoate]
2 | < 1000 nM | < 1000 nM | COC(=O)Cc1c[nH]c2ccc(CC(=O)NC(c3ccccc3)c3ccc(C)cc3N3CCCC3)cc12 (centres unmarked) [Cpd. 64, methyl 2-{5-[({[4-methyl-2-(pyrrolidin-1-yl)phenyl](phenyl)methyl}carbamoyl)methyl]-1H-indol-3-yl}acetate]
3 | < 1000 nM | 1000 to 10000 nM | Cc1ccc(C(NC(=O)Cc2ccc3[nH]cc(CCC(=O)OC(C)(C)C)c3c2)c2ccccc2)c(N2CCCCC2)c1 (centres unmarked) [Cpd. 76, tert-butyl 3-{5-[({[4-methyl-2-(piperidin-1-yl)phenyl](phenyl)methyl}carbamoyl)methyl]-1H-indol-3-yl}propanoate]
4 | < 1000 nM | 1000 to 10000 nM | COC(=O)Cc1c[nH]c2ccc(CC(=O)NC(c3ccccc3)c3ccc(Cl)cc3N3CCCC3)cc12 (centres unmarked) [Cpd. 84, methyl 2-{5-[({[4-chloro-2-(pyrrolidin-1-yl)phenyl](phenyl)methyl}carbamoyl)methyl]-1H-indol-3-yl}acetate]
5 | < 1000 nM | < 1000 nM | COC(=O)Cc1c[nH]c2ccc(CC(=O)NC(c3ccccc3)c3ccc(C)cc3N3CCCCC3)cc12 (centres unmarked) [Cpd. 86, methyl 2-{5-[({[4-methyl-2-(piperidin-1-yl)phenyl](phenyl)methyl}carbamoyl)methyl]-1H-indol-3-yl}acetate]
6 | < 1000 nM | 1000 to 10000 nM | COC(=O)Cc1c[nH]c2ccc(CC(=O)NC(c3ccccc3)c3ccc(C(F)(F)F)cc3N3CCCC3)cc12 (centres unmarked) [Cpd. 88, methyl 2-{5-[({phenyl[2-(pyrrolidin-1-yl)-4-(trifluoromethyl)phenyl]methyl}carbamoyl)methyl]-1H-indol-3-yl}acetate]
7 | < 1000 nM | 10000 to 30000 nM | CC(C)(C)OC(=O)CCc1c[nH]c2ccc(CC(=O)NC(c3ccccc3)c3ccc(Cl)cc3N3CCCC3)cc12 (centres unmarked) [Cpd. 90, tert-butyl 3-{5-[({[4-chloro-2-(pyrrolidin-1-yl)phenyl](phenyl)methyl}carbamoyl)methyl]-1H-indol-3-yl}propanoate]
8 | < 1000 nM | 1000 to 10000 nM | COC(=O)Cc1c[nH]c2ccc(CC(=O)NC(c3ccccc3)c3ccc(C)cc3N3CCOCC3)cc12 (centres unmarked) [Cpd. 96, methyl 2-{5-[({[4-methyl-2-(morpholin-4-yl)phenyl](phenyl)methyl}carbamoyl)methyl]-1H-indol-3-yl}acetate]
9 | < 1000 nM | 1000 to 10000 nM | COc1ccc(C(NC(=O)Cc2ccc3[nH]cc(CCC(=O)OC(C)(C)C)c3c2)c2ccccc2)c(N2CCCCC2)c1 (centres unmarked) [Cpd. 110, tert-butyl 3-{5-[({[4-methoxy-2-(piperidin-1-yl)phenyl](phenyl)methyl}carbamoyl)methyl]-1H-indol-3-yl}propanoate]
10 | < 1000 nM | 1000 to 10000 nM | COc1ccc(C(NC(=O)Cc2ccc3[nH]cc(CCC(=O)OC(C)(C)C)c3c2)c2ccccc2)c(N2CCCCCC2)c1 (centres unmarked) [Cpd. 141, tert-butyl 3-{5-[({[2-(azepan-1-yl)-4-methoxyphenyl](phenyl)methyl}carbamoyl)methyl]-1H-indol-3-yl}propanoate]

Second part, the compound before the results:

Row | Structure (SMILES) | IC50 [1] | IC50 (human RORγt)
11 | CC(C)(C)OC(=O)CCc1c[nH]c2ccc(CC(=O)NC(c3ccccc3)c3ccc(C(F)(F)F)cc3N3CCCC3)cc12 (centres unmarked) [Cpd. 47, tert-butyl 3-{5-[({phenyl[2-(pyrrolidin-1-yl)-4-(trifluoromethyl)phenyl]methyl}carbamoyl)methyl]-1H-indol-3-yl}propanoate] | 1000 to 10000 nM | 1000 to 10000 nM
12 | CC(C)(C)OC(=O)CCc1c[nH]c2ccc(CC(=O)NC(c3ccccc3)c3ccc(C#N)cc3N3CCCC3)cc12 (centres unmarked) [Cpd. 59, tert-butyl 3-{5-[({[4-cyano-2-(pyrrolidin-1-yl)phenyl](phenyl)methyl}carbamoyl)methyl]-1H-indol-3-yl}propanoate] | < 1000 nM | 1000 to 10000 nM
13 | CC(C)(C)OC(=O)CCc1c[nH]c2ccc(CC(=O)NC(c3ccccc3)c3ccccc3N3CCCC3)cc12 (centres unmarked) [Cpd. 78, tert-butyl 3-{5-[({phenyl[2-(pyrrolidin-1-yl)phenyl]methyl}carbamoyl)methyl]-1H-indol-3-yl}propanoate] | 1000 to 10000 nM | 1000 to 10000 nM
14 | COc1ccc(C(NC(=O)Cc2ccc3[nH]cc(CCC(=O)OC(C)(C)C)c3c2)c2ccccc2)c(C)c1 (centres unmarked) [Cpd. 82, tert-butyl 3-[5-({[(4-methoxy-2-methylphenyl)(phenyl)methyl]carbamoyl}methyl)-1H-indol-3-yl]propanoate] | < 1000 nM | 1000 to 10000 nM
15 | COc1cc(C)ccc1C(NC(=O)Cc1ccc2[nH]cc(CCC(=O)OC(C)(C)C)c2c1)c1ccccc1 (centres unmarked) [Cpd. 98, tert-butyl 3-[5-({[(2-methoxy-4-methylphenyl)(phenyl)methyl]carbamoyl}methyl)-1H-indol-3-yl]propanoate] | < 1000 nM | 1000 to 10000 nM
16 | COc1ccc(C(NC(=O)Cc2ccc3[nH]cc(CCC(=O)OC(C)(C)C)c3c2)c2ccccc2)c(N2CCCC2)c1 (centres unmarked) [Cpd. 108, tert-butyl 3-{5-[({[4-methoxy-2-(pyrrolidin-1-yl)phenyl](phenyl)methyl}carbamoyl)methyl]-1H-indol-3-yl}propanoate] | < 1000 nM | < 1000 nM
17 | CCNc1cc(C)ccc1C(NC(=O)Cc1ccc2[nH]cc(CCC(=O)OC(C)(C)C)c2c1)c1ccccc1 (centres unmarked) [Cpd. 119, tert-butyl 3-{5-[({[2-(ethylamino)-4-methylphenyl](phenyl)methyl}carbamoyl)methyl]-1H-indol-3-yl}propanoate] | < 1000 nM | 1000 to 10000 nM
18 | Cc1ccc(C(NC(=O)Cc2ccc3[nH]cc(CCC(=O)OC(C)(C)C)c3c2)c2ccccc2)c(NC(C)C)c1 (centres unmarked) [Cpd. 125, tert-butyl 3-(5-{[({4-methyl-2-[(propan-2-yl)amino]phenyl}(phenyl)methyl)carbamoyl]methyl}-1H-indol-3-yl)propanoate] | < 1000 nM | 1000 to 10000 nM
19 | Cc1ccc(C(NC(=O)Cc2ccc3[nH]cc(CCC(=O)OC(C)(C)C)c3c2)c2ccccc2)c(OC(C)C)c1 (centres unmarked) [Cpd. 145, tert-butyl 3-{5-[({[4-methyl-2-(propan-2-yloxy)phenyl](phenyl)methyl}carbamoyl)methyl]-1H-indol-3-yl}propanoate] | < 1000 nM | 1000 to 10000 nM
20 | CCOC(=O)CCc1n[nH]c2ccc(CC(=O)NC(c3ccccc3)c3ccc(C)cc3OC(C)C)cc12 (centres unmarked) [Cpd. 159, ethyl 3-{5-[({[4-methyl-2-(propan-2-yloxy)phenyl](phenyl)methyl}carbamoyl)methyl]-1H-indazol-3-yl}propanoate] | < 1000 nM | 1000 to 10000 nM
21 | CCOC(=O)CCCc1c[nH]c2ccc(CC(=O)NC(c3ccccc3)c3ccccc3N3CCCCC3)cc12 (centres unmarked) [Cpd. 211, ethyl 4-{5-[({phenyl[2-(piperidin-1-yl)phenyl]methyl}carbamoyl)methyl]-1H-indol-3-yl}butanoate] | < 1000 nM | 1000 to 10000 nM
22 | CCOC(=O)CCCCc1c[nH]c2ccc(CC(=O)NC(c3ccccc3)c3ccccc3N3CCCCC3)cc12 (centres unmarked) [Cpd. 216, ethyl 5-{5-[({phenyl[2-(piperidin-1-yl)phenyl]methyl}carbamoyl)methyl]-1H-indol-3-yl}pentanoate] | < 1000 nM | 1000 to 10000 nM
